Where two headings read alike, the source gives them in different places.
Experiments:
5‐LO [1] = target: T1, 5‐LO (Homo sapiens, UniProt P09917); test: Ex vivo whole blood stimulation with opsonized zymosan, 5‐LO products; assay type: cell-based; design: endogenous in cells; host or cells: human polymorphonuclear leukocytes isolated from heparinized blood; conditions: 5‐LO product biosynthesis in whole blood, mean (95% confidence interval)
T1 sequence (P09917 1-674): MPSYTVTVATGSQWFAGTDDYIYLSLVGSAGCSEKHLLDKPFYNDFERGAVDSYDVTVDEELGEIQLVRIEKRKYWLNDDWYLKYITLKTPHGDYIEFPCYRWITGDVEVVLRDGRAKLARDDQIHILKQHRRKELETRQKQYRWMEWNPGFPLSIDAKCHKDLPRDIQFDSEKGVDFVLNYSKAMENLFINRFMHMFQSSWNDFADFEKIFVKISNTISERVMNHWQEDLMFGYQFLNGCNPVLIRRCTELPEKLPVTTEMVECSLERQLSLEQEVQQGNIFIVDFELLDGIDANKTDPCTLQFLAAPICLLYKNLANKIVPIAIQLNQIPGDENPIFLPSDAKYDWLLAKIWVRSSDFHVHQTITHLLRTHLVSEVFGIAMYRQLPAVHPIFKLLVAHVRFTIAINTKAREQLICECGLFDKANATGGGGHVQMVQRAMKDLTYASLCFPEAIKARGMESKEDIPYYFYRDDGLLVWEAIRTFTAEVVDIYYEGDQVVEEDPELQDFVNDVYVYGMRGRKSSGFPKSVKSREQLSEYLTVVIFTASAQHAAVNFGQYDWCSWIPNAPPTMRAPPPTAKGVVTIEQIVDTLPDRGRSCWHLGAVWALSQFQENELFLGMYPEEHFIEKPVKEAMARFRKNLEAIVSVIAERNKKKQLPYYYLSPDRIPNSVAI
Method: Blood was collected in tubes containing heparin as anticoagulant. Test compounds or their diluent control (DMSO, 0.1%) were added to 1 mL of heparinized blood at the indicated concentrations and incubated for 5 minutes in a water bath at 37°C. Stimulation was initiated with the addition of 125 μL of 40 mg/mL of opsonized zymosan, samples were then gently vortexed and incubated at 37°C for 30 minutes.34 Samples were then centrifuged at 960g for 10 minutes at 4°C, plasma was removed and added to tubes containing 4 volumes of CH3OH:CH3CN (1:1) containing 100 ng/mL of PGB2 as internal standard. Samples were stored overnight at −20°C, and then centrifuged at 3300g for 10 minutes. Samples were then purified on C18 cartridges, were eluted with CH3OH, dried under nitrogen, resuspended in 46% of CH3OH:CH3CN (1:1), and analyzed using RP‐HPLC as described above.

[2] = design: method as in PMID 17394337, PMID 15358316, PMID 19544289; conditions: carboxylesterase; cited from earlier work
HepaRG cells = test: Residual inhibition of 5‐LO product biosynthesis in blood after incubation with HepaRG cells; assay type: in vitro ADME, human; conditions: for Inhibitory activity against 5‐LO product biosynthesis after incubation with HepaRG cells: 50 µmol/L with HepaRG cells, after 60 minutes, medium added to blood, zymosan, LTB4
Method: Differentiated HepaRG cells, plated in 24 well plates, were washed with hepatocyte suspension medium (Williams E‐medium without phenol red, supplemented with 2 mmol/L Glutamax and […] HEPES) before addition of hepatocyte suspension medium (250 µL/well) containing (30 or 50 µmol/L) of the test compounds or their diluent. Cells were then incubated for 7.5, 15, 30, 60 or 90 minutes at 37°C after which the medium was removed.
In experiments where the inhibitory capacity of test compounds was to be determined after incubation with HepaRG cells, 125 µL of the hepatocyte suspension medium containing test compounds that had been collected at different time points from HepaRG cultures was added to 1 mL of heparinized blood. After a 5 minutes of preincubation, blood was then stimulated with opsonized zymosan and processed for HPLC analysis of 5‐LO metabolites as described above.
Figure 6 Stability of the test compounds for the inhibition of the biosynthesis of 5‐LO products following incubation with HepaRG cells. HepaRG cells were incubated with […] of hepatocyte suspension medium containing 50 µmol/L of test compounds for the indicated times at 37°C. Hepatocyte suspension medium (125 µL) was then removed and added to 1 mL of blood that was then incubated for 5 minutes and then stimulated with opsonized zymosan (4 mg/mL) for 30 minutes at 37°C. Blood was then centrifuged and plasma was collected and added to 1.2 mL of CH3OH:CH3CN (1:1). Samples were processed for analysis using RP‐HPLC for LTB4 quantification. Data are expressed as means ± SEM of at least three independent experiments. *Difference from time = 0, as determined using One‐way ANOVA with Dunnett's multiple comparison test (P < .05)

5‐LO [3] = target: T1, 5‐LO; design: endogenous in cells; host or cells: human polymorphonuclear leukocytes isolated from heparinized blood; method as in PMID 22347509, PMID 28680195; conditions: read-out: IC50 of LT biosynthesis in whole blood; cited from earlier work
5‐LO [4] = target: T1, 5‐LO; test: Biosynthesis of 5‐LO products in stimulated HEK293 cells expressing 5‐LO and FLAP; assay type: cell-based; design: expressed in transfected cells; host or cells: HEK293 cells (ATCC), stably transfected; conditions: 1 μmol/L, 5 min preincubation; 10 μmol/L A23187 + 10 μmol/L arachidonic acid 15 min
Method: HEK293 cells were obtained from ATCC (Manassas) and were cultured in Dulbecco’s Modified Eagle Medium (DMEM) supplemented with 10% fetal bovine serum. Cells were stably transfected with 5‐lipoxygenase and 5‐lipoxygenase activating protein (FLAP) as previously described.31
Transfected HEK293 cells were collected and resuspended in Hank's balanced salt solution (HBSS, Lonza) containing 1.6 mmol/L CaCl2 at a concentration of 5 × 10^5 cells/mL, and were preincubated with each compound at concentration of 1 µmol/L for 5 minutes at 37°C. Cells were then stimulated for 15 minutes at 37°C with the addition of 10 µmol/L calcium ionophore A23187 (Sigma‐Aldrich) and 10 µmol/L arachidonic acid (Cayman Chemical).28 Stimulations were stopped by adding 0.5 volume of cold CH3OH:CH3CN (1:1) containing 100 ng/mL of prostaglandin B2 (PGB2) as internal standard. Samples were stored at −20°C and analyzed for 5‐LO products using reversed‐phase high‐performance liquid chromatography (RP‐HPLC) as described previously.32
Figure 2 The structures of the tested compounds (A) and their effects on the biosynthesis of 5‐LO products in transfected HEK293 cells (B). HEK293 cells expressing 5‐LO and FLAP were incubated in presence of the indicated compounds (1 μmol/L) or their diluent (Control, 0.1% DMSO) for 5 minutes, followed by the addition of 10 μmol/L calcium ionophore A23187 and 10 μmol/L arachidonic acid for 15 minutes. Reactions were then stopped, and samples were processed for analysis of 5‐LO products using RP‐HPLC. Total 5‐LO products measured represent the sum of LTB4, its trans isomers and 5‐hydroxyeicosatetraenoic acid. Data are expressed as means ± SEM of at least three independent experiments. *Difference from control as determined using one‐way ANOVA with Dunnett's multiple comparison test (P < .05)

SMILES	IC50 (5‐LO [1]) [µM]	Inhibitory activity against 5‐LO product biosynthesis after incubation with HepaRG cells (HepaRG cells)	Inhibition of biosynthesis of 5‐LO products in transfected HEK293 cells (5‐LO [4])	Inhibitory activity retained after incubation in HepaRG cultures (HepaRG cells; after up to one hour of incubation) [%]	Stability in rat plasma [2]	IC50 (5‐LO [3]) [µM]
O=C(/C=C/c1ccc(O)c(O)c1)CCCc1ccccc1 [compound 7]	2.3	lost all their inhibitory activity	–	–	–	–
O=C(/C=C/c1cc(O)ccc1O)OCCc1ccccc1 [compound 5]	1	lost all their inhibitory activity	very good inhibitory activity	–	–	–

More lines, in order of falling IC50 (5‐LO [1]), values ahead:

IC50 (5‐LO [1]) [µM]	Inhibitory activity against 5‐LO product biosynthesis after incubation with HepaRG cells (HepaRG cells)	Inhibition of biosynthesis of 5‐LO products in transfected HEK293 cells (5‐LO [4])	Inhibitory activity retained after incubation in HepaRG cultures (HepaRG cells; after up to one hour of incubation) [%]	SMILES	Stability in rat plasma [2]	IC50 (5‐LO [3]) [µM]
3.58	lost all their inhibitory activity	–	–	O=C(/C=C/c1ccc(O)c(O)c1)OCCc1ccccc1 [CAPE (2), caffeic acid phenethyl ester, reference compound]	rapidly hydrolyzed to caffeic acid	1.8
1.2	maintained significant inhibition	–	50	COc1cc(/C=C/C(=O)CCc2ccccc2)cc(OC)c1O [compound 10, sinapic acid phenethyl ketone]	–	–
1.15	lost all their inhibitory activity	–	–	O=C(/C=C/c1cc(O)ccc1O)CCc1ccccc1 [compound 8]	–	–

— PMC6743424, “Phenolic acid phenethylesters and their corresponding ketones: Inhibition of 5‐lipoxygenase and stability in human blood and HepaRG cells” (Pharmacology Research & Perspectives, 2019)
